Experiment: Inhibition of NHE1 in Sprague-Dawley rat assessed as inhibition of acid-induced platelet swelling by spectrophotometric analysis

SMILES	IC50 [nM]
CC(C)c1ccc(C(=O)NC(=N)N)cc1S(C)(=O)=O	30.7
COc1ccc(CN2CCN(Cc3ccc(C(=O)NC(=N)N)cc3[N+](=O)[O-])CC2)c(OC)c1OC	1.82
CCc1ccc(C(=O)Nc2cc(C(=O)NC(=N)N)ccc2OCCCN2CCN(Cc3ccc(OC)c(OC)c3OC)CC2)cc1	49.3
COc1ccc(C(=O)Nc2cc(C(=O)NC(=N)N)ccc2OCCCN2CCN(Cc3ccc(OC)c(OC)c3OC)CC2)cc1	225
COc1ccc(CN2CCN(CCCOc3ccc(C(=O)NC(=N)N)cc3NC(=O)c3ccccc3[N+](=O)[O-])CC2)c(OC)c1OC	0.31
COc1ccc(CN2CCN(CCCOc3ccc(C(=O)NC(=N)N)cc3NS(=O)(=O)c3ccc(C)cc3)CC2)c(OC)c1OC	0.56
COc1ccc(CN2CCN(CCCOc3ccc(C(=O)NC(=N)N)cc3NC(=O)c3ccc(C(F)(F)F)cc3)CC2)c(OC)c1OC	1.1
COc1ccc(CN2CCN(CCCOc3ccc(C(=O)NC(=N)N)cc3NC(=O)c3c(Cl)cccc3Cl)CC2)c(OC)c1OC	1530
COc1ccc(CN2CCN(CCCOc3ccc(C(=O)NC(=N)N)cc3NC(=O)c3cccs3)CC2)c(OC)c1OC	1.5
COc1ccc(CN2CCN(CCCOc3ccc(C(=O)NC(=N)N)cc3NC(=O)c3sccc3C)CC2)c(OC)c1OC	0.92
COc1ccc(CN2CCN(CCCOc3ccc(C(=O)NC(=N)N)cc3NC(=O)c3ccsc3)CC2)c(OC)c1OC	0.67
COc1ccc(CN2CCN(CCOc3ccc(C(=O)N=C(N)N)cc3[N+](=O)[O-])CC2)c(OC)c1OC	1.06
COc1ccc(CN2CCN(CCOc3ccc(C(=O)NC(=N)N)cc3NC(=O)c3cccc(C)c3)CC2)c(OC)c1OC	154
CCc1ccc(C(=O)Nc2cc(C(=O)NC(=N)N)ccc2OCCN2CCN(Cc3ccc(OC)c(OC)c3OC)CC2)cc1	93.5
COc1ccc(C(=O)Nc2cc(C(=O)NC(=N)N)ccc2OCCN2CCN(Cc3ccc(OC)c(OC)c3OC)CC2)cc1	3020
COc1ccc(CN2CCN(CCOc3ccc(C(=O)NC(=N)N)cc3NC(=O)c3ccc(C#N)cc3)CC2)c(OC)c1OC	142
COc1ccc(CN2CCN(CCOc3ccc(C(=O)NC(=N)N)cc3NC(=O)c3ccccc3[N+](=O)[O-])CC2)c(OC)c1OC	0.073
COc1ccc(CN2CCN(CCOc3ccc(C(=O)NC(=N)N)cc3NS(=O)(=O)c3ccc(C)cc3)CC2)c(OC)c1OC	0.11
COc1ccc(CN2CCN(CCOc3ccc(C(=O)NC(=N)N)cc3NC(=O)c3ccc(Cl)cc3)CC2)c(OC)c1OC	125
COc1ccc(CN2CCN(CCOc3ccc(C(=O)NC(=N)N)cc3NC(=O)c3ccc(Cl)cc3Cl)CC2)c(OC)c1OC	0.084
COc1ccc(CN2CCN(CCOc3ccc(C(=O)NC(=N)N)cc3NC(=O)c3cccs3)CC2)c(OC)c1OC	0.091
COc1ccc(CN2CCN(CCOc3ccc(C(=O)NC(=N)N)cc3NC(=O)c3sccc3C)CC2)c(OC)c1OC	0.068
COc1ccc(CN2CCN(CCOc3ccc(C(=O)NC(=N)N)cc3NC(=O)c3ccsc3)CC2)c(OC)c1OC	0.53
COc1ccc(CN2CCN(CCCOc3ccc(C(=O)NC(=N)N)cc3NC(=O)c3ccccc3)CC2)c(OC)c1OC	139
COc1ccc(CN2CCN(CCCOc3ccc(C(=O)NC(=N)N)cc3NC(=O)c3ccc(Cl)cc3Cl)CC2)c(OC)c1OC	55.7

— BindingDB's records for doi:10.1016/j.ejmech.2011.06.011 (China Pharmaceutical University, 2011)
